From publication PMC9921896 (Molecules, 2023)

Assays:
CYP2B6 = molecular target: T1, CYP2B6 (Homo sapiens, UniProt P20813); test: CYP inhibition assay in HLM, single concentration; format: biochemical; details: human liver microsomes, probe Bupropion, n = 3, read-out: % Inhibition (CYP 2B6)
T1 construct: Using HLM as the enzyme source; from tissue; host or cells: human liver microsomes
T1 sequence (P20813 1-491): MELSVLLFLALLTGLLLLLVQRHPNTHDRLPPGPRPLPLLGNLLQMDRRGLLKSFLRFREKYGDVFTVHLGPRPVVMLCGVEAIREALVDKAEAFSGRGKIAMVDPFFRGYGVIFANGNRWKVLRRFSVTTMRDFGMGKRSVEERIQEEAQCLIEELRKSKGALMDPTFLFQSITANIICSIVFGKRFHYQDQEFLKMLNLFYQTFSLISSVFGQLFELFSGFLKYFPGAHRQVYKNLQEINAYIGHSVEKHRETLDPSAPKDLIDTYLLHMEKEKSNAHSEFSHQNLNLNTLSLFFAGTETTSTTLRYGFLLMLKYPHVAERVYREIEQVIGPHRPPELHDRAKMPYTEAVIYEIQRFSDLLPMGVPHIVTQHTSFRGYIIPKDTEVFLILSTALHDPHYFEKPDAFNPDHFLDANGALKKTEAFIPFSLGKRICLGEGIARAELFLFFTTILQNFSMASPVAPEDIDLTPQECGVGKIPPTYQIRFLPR
Protocol: (§1) The regulatory bodies and pharmaceutical firms are quite concerned about CYP inhibition. Therefore, medicinal chemists often change the lead structure to decrease CYP inhibition. If left uncorrected, it can cause DDIs, enhanced drug concentration, and, thus, toxicity.
(§2) Using HLM as the enzyme source, the CYP inhibition potential was employed to assess the inhibitory effect of the TbB ligands on the CYP1A2, 2B6, 2C8, 2C9, 2C19, and 2D6 3A4 isoforms. Phenacetin (CYP1A2, […]), tolbutamide (CYP2C9, 20 mM), bupropion (CYP2B6, […]), mephenytoin (CYP2C19, […]), midazolam (CYP3A4, 5 mM), amodiaquine (CYP2C8, 0.02 mM), and dextromethorphan (CYP2D6, 5 mM) were used as probe substrates. The test substance included TbB ligand (final concentrations of […] for each) and HLMs (final concentration of 0.1 mg protein per mL), with or without 1.0 mM NADPH. The reaction was started by adding pre-incubated 25 μ L of NADPH into all wells and incubate at 37 °C for 10 min for 3A4 and 20 min for remaining all isoforms. The reaction was stopped by adding 100 μ L of stop solution to all wells. The samples were centrifuged at 4000 rpm for 10 min at 4 °C. Supernatant (100 μ L) was withdrawn, mixed with 200 μ L of water followed by LC-MS/MS analysis.

CYP2C8 = molecular target: T2, CYP2C8 (Homo sapiens, UniProt P10632); test: CYP inhibition assay in HLM, single concentration; format: biochemical; details: human liver microsomes, probe Amodiaquine, n = 3, read-out: % Inhibition (CYP 2C8)
T2 construct: Using HLM as the enzyme source; from tissue; host or cells: human liver microsomes
T2 sequence (P10632 1-490): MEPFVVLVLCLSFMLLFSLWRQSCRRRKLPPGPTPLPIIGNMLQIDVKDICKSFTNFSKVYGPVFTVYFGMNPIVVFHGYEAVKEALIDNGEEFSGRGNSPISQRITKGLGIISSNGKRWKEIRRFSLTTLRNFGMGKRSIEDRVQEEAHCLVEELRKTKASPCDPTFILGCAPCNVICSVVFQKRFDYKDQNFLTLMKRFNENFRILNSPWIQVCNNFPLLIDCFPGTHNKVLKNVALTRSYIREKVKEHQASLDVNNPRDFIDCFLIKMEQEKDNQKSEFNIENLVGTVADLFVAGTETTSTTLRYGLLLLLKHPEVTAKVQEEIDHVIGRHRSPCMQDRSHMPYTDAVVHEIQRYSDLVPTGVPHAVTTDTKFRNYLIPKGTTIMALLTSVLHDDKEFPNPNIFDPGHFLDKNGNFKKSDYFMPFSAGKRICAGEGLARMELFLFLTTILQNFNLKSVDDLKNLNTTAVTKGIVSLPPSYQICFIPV
Protocol: as §1, §2

[1] = Substrate depletion assay in human liver microsomes (HLM); format: in vitro ADME; details: pooled human liver microsomes, pH 7.4, test conc. 1.0E-07 M (Table S4)
Protocol: Microsomal stability was determined for the TbB ligands by monitoring the presence of compound after incubation in CPHH and HLM, as shown in Figure 7 and Figure S18 of the Supporting Information. […] Such an observation with NCEs is common because, with HLM, NADPH is used as a cofactor, thereby focusing mainly on phase 1 oxidation pathways such as P450 metabolism. Although additional enzymes, such as UDP-glucuronosyltransferase (UGTs), are present in HLM, the lack of the associated necessary cofactors prevents them from being functionally active (e.g., uridine diphosphate glucuronic acid (UDPGA)). In contrast, all the three TbB ligands metabolized in cryopreserved hepatocytes (Figure 7). […] The reason could be that hepatocytes have all the necessary enzymes and cofactors for the metabolic processes. Since they contain the complete set of oxidative/reductive, hydrolytic, and conjugative drug metabolizing enzymes found in the liver, they are regarded as the gold standard. Therefore, they are preferred in vitro options for expressing metabolic stability as substrate depletion, total metabolic clearance, and T 1/2 [29].
From the plot shown in Figure S18 of the Supporting Information, it can be inferred that the TbB ligands undergo slow biotransformation in HLM. Such high metabolic stability may result in drug interactions leading to toxicity of the parent compound. On the contrary, TbB ligands are undergoing rapid biotransformation in CPHH (Figure 7), and this may lead to generation of metabolites that are either toxic, active, or nonactive. Metabolic stability is typically expressed by in vitro half-life T 1/2 and intrinsic clearance (CLint) terms. Intrinsic clearance (CLint) is measured using the substrate depletion method. It describes the maximum liver (microsomal proteins or hepatocytes) activity towards a compound not affected by other physiological factors such as hepatic blood flow and drug binding within the blood matrix. T 1/2 is used to express the time for the 50% disappearance of the parent compound. A possible explanation for the difference in metabolic stability might be that the TbB ligands bind to microsomes during incubation. This can result in decreased free TbB ligand levels available to interact with metabolizing enzymes, reducing apparent intrinsic clearance values.
By preincubating a test substance for 5 minutes in phosphate buffer (pH 7.4) at 37 °C in shaking water bath, the stability of the test substance was examined in pooled HLM. After NADPH-generating systems addition, the reaction gets initiated and post incubation for 0, 15, 30, 45, and 60 min, the reaction is terminated with addition of acetonitrile/methanol to the incubation mixture. Supernatant obtained after mixing and centrifuging the sample is analyzed by HPLC-MS/MS. Microsomal protein for final use is at 0.1 mg/mL concentration. Four compounds, namely, propranolol and imipramine, known to be relatively stable, and verapamil and terfenadine, known as readily metabolizing in HLM, were included in each assay. Post HPLC-MS/MS of the samples, data are analyzed by considering test compounds peak area at each time point to time zero. Assuming the reaction to follow first-order kinetics, the slope of the initial linear range of the logarithmic curve of remaining compound (%) vs. time is considered to calculate the half-life. Additionally, the half-life is utilized to calculate the intrinsic clearance (CLint) as shown in the following equation. CLint(μL/min/mgprotein)=0.693/T1/2×proteinconc.

inhibition at 20 min, 10 µM (CYP2B6)	inhibition at 20 min, 10 µM (CYP2C8)	half-life at 100 nM [1]	microsomal CLint at 100 nM [1]	SMILES
47%	39%	13.5 h	< 116 µL/min/mg	COc1cc(-c2nnn(-c3cc(OC)c(O)c(OC)c3)n2)cc(OC)c1O [223-2]
80%	88%	1.25 h	< 116 µL/min/mg	Cc1cc(-c2nnn(-c3cc(C)c(O)c(C)c3)n2)cc(C)c1O [223-3]
54%	82%	3 h	< 116 µL/min/mg	Oc1ccc(-c2nnn(-c3ccc(O)cc3)n2)cc1 [223-10]
